PMC12058896, “Potent antimicrobial activity of hydrogel loaded with the antimicrobial peptide, D-Bac8c^2,5 Leu, against monospecies and polymicrobial biofilms of Staphylococcus aureus and Pseudomonas aeruginosa” (Frontiers in Microbiology, 2025)
≈ marks a conversion by molar mass, not a printed value. Non-standard residues stand in square brackets, D forms with d. Residues, ends and D or L forms follow the SMILES beside them.

Tests used:
[1] = system: monospecies and polymicrobial biofilms of Staphylococcus aureus and Pseudomonas aeruginosa; test: Static biofilm assays; format: cell-based
Description: Biofilms were formed under static conditions using flat 96-well polystyrene plates as described previously with few modifications ([[…] al., 2018]). Briefly, overnight cultures in BHI were washed and diluted 1:200 in fresh Bolton Broth media supplemented with 50% bovine heparin plasma, and 5% laked horse blood. From this suspension, 100 μL was used to inoculate the microtiter plate wells prior to static incubation at 37°C for 24 h, 3 days and 5 days. The media in each well was changed daily during prolonged incubation periods (3 and 5 days). […] After incubation with D-Bac8c^2,5 Leu, biofilms were washed twice with PBS and biofilm assessment was performed. For the polymicrobial biofilms, a bacterial solution ratio 1:1 of S. aureus and P. aeruginosa at 1 × 10^5 CFU/mL each was used to inoculate the wells. In each assay, inoculated medium without antimicrobials and uninoculated medium served as growth and sterility controls, respectively. […] Viability of biofilm cells after treatment was measured using resazurin-conversion assay as previously described ([Hogan et al., 2016]) (Sigma-Aldrich, Ireland). […] Fluorescence intensity was detected at excitation of 544 nm and emission of 590 nm using a fluorimeter, Perkin Elmer 2030 Multilabeled Reader, Victor 3X. […] After overnight incubation at 37°C, CFU were counted and results were expressed as log10CFU/mL.

[2] = system: HUVEC; test: MTT cell viability; format: cell-based, human; details: 24 h, 37°C, 5% CO2, average of three independent experiments
[3] = system: IL-8; details: ref Zapotoczna et al. (2017); cited from earlier work
Text: (§1) Similarly, here we verified that D-Bac8c^2,5 Leu has low toxicity to human monocytes THP-1.

[4] = system: TNFα; details: ref Zapotoczna et al. (2017); cited from earlier work
Text: as §1

[5] = system: HaCaT; test: MTT cell viability; format: cell-based, human; details: 24 h, 37°C, 5% CO2, average of three independent experiments
[6] = system: monospecies and polymicrobial biofilms of S. aureus and P. aeruginosa; test: Duckworth biofilm flow device (dynamic biofilm); format: cell-based; details: biofilms grown 1 and 5 days under shear flow in SWF; 256 μg/mL for 6 h
Description: The Duckworth biofilm flow device was set-up and run following the method described by [Duckworth et al. (2018)]. Twelve disks of agar at 1.5% (w/v) concentration were cut using a 10 mm French press punch and placed into designated wells in the flow device. Cellulose filter (13 mm, 0.22 μm, Merck Millipore, Ireland) was placed on top of each agar disk, and was inoculated with 10 μL of the bacterial inoculum. The device was placed in an incubator at 37°C while a continuous flow of SWF was pumped into the device at a flow rate of 0.322 mL/min for 24 h or 5 days using a peristaltic pump (Supplementary Figure S2). Subsequently, topical treatment with D-Bac8c^2,5 Leu was introduced and allowed to run for a further 6 h. The biofilm formed on the cellulose filters were collected and suspended in 1 mL PBS. Colony counting was performed as described above. The Duckworth biofilm flow device was prepared and run as described above with slight modification. A solution of agarose dissolved in SWF (0.3 g in 20 mL), mixed with bacterial cultures at 10^8 CFU/mL and then supplemented with 3% FBS and 0.15% collagen (Merck, Ireland) was allowed to solidify at room temperature and then 12 disks of that was cut using a 10 mm French press punch. The disks were then placed into designated wells and experiments run as previously described. […]

[7] = system: S. aureus strains; format: cell-based, Staphylococcus aureus; details: 2 MRSA and 2 MSSA strains, summed up in text
Description: Strains used in the study were isolates of methicillin-resistant Staphylococcus aureus (MRSA); USA300 LAC, BH1CC ([O’Neill et al., 2007]), methicillin-sensitive S. aureus (MSSA); SH1000 ([Horsburgh et al., 2002]) and BH48 ([O’Neill et al., 2007]); and Pseudomonas aeruginosa PAO1 (ATCC […]). Clinical isolates were obtained from a previous collection of isolates of infected wounds. Bacteria were grown aerobically at 37°C with shaking at 200 rpm in Brain Heart Infusion (BHI, Oxoid, Ireland). Selective media, Mannitol Salt Agar (SLS, Ireland) and MacConkey agar (SLS, Ireland), for re-isolation of bacterial strains from mixed species biofilms were used. Bolton Broth (Fannin, Ireland) supplemented with 50% bovine heparin plasma (TebuBio, UK), and 5% laked horse blood (Sigma-Aldrich, Ireland) was used to mimic in vivo conditions for static antibiofilm testing. For dynamic biofilm growth Simulated Wound Fluid (SWF) prepared as described previously with slight modification, 3% v/v fetal bovine serum in maximum recovery diluent (Merck, Ireland) was used ([Barbour et al., 2016]).
Minimum inhibitory concentration (MIC) was determined aerobically using the broth microdilution assay as recommended by the Clinical and Laboratory Standards Institute (CLSI) ([CLSI, 2018]). […]

CC(C)C[C@@H](NC(=O)[C@H](N)CCCNC(=N)N)C(=O)N[C@H](Cc1c[nH]c2ccccc12)C(=O)N[C@@H](C(=O)N[C@H](CC(C)C)C(=O)N[C@H](Cc1c[nH]c2ccccc12)C(=O)N[C@H](CCCNC(=N)N)C(=O)N[C@H](CCCNC(=N)N)C(N)=O)C(C)C [D-Bac8c^2,5 Leu] (H-[dR][dL][dW][dV][dL][dW][dR][dR]-NH2; N-terminus assumed)
reduction in bacterial load compared to untreated controls ([1]; static biofilm assays, summed up in abstract): 2–3 log | minimum concentration needed to inactivate biofilms ([1]; static biofilms, 6 h treatment (Figures 1, 2 and Table 3)): 64 µg/mL | IC50 (50% cell viability), MTT [2]: 134 µg/mL (≈ 113 µM) | biofilm-induced increase in IL-8 levels [3]: inhibited | effect on TNFα [4]: without affecting | IC50 (50% cell viability), MTT [5]: 426.7 µg/mL (≈ 361 µM) | reduction in viability [6]: ≤ 3 log | MIC against S. aureus strains [7]: 8 µg/mL (≈ 6.76 µM)
